Laboratory results taken from PMC8637440, “Structural Modifications Yield Novel Insights Into the Intriguing Pharmacodynamic Potential of Anti-inflammatory Nitro-Fatty Acids” (Frontiers in Pharmacology, 2021).

Assays:
[1] = molecular target: T1, r5LO-wt (Homo sapiens, UniProt P09917); test: Recombinant 5-LO activity assay (5-HETE); assay type: biochemical
T1 sequence (P09917 1-674): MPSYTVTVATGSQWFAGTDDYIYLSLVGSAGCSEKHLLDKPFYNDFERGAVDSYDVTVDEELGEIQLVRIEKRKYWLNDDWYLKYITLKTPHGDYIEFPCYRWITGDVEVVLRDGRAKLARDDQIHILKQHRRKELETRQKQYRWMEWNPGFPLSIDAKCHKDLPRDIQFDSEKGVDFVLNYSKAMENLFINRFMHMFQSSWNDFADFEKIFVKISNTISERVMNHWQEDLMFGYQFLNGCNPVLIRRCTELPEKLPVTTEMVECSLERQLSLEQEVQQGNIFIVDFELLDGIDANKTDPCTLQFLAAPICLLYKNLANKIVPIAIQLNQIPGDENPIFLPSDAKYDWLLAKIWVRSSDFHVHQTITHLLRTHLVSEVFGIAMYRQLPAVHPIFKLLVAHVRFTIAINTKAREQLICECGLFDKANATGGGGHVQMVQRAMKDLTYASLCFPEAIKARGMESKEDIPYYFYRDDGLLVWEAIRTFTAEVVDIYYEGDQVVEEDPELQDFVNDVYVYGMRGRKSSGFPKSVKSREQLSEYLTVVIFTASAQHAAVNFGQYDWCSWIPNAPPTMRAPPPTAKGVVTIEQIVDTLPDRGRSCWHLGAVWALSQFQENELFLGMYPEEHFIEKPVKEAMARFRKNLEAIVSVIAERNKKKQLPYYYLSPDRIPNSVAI
Description: 5-LO activity in intact cells was assayed by measuring LTB4 (leukotriene B4) and 5-HETE (5-hydroxyeicosatetraenoic acid) levels in the PMNL supernatants. Since PMNL preparations (purity >95%) contain eosinophils expressing 15-LO-1 as well as platelets, we also analyzed the effects of NFA on the concomitant formation of […] and 12-(S)-HETE. […] Recombinant 5-LO enzyme activity was assessed by the determination of 5-HETE levels representing a direct product assay. In the cell-based LO activity assays, 5 × 10^6 cells per ml PBS/glucose were transferred to 5 ml glass tubes containing 1 mM CaCl2 and stored on ice. […] Subsequently, the cells were stimulated with calcium ionophore A23187 (2.5 µM) and arachidonic acid (AA, 20 µM) for an additional 10 min at 37°C. Recombinant 5-LO activity assays were carried out using 3 µg r5LO-wt enzyme. The enzyme was diluted in PBS/EDTA/ATP, transferred into 5-ml glass tubes, and stored on ice. […] The samples were then pre-heated at 37°C in a water bath and subsequently stimulated with 1 mM CaCl2 and 20 µM AA for 10 min at 37°C. The reaction was stopped by placing the glass tubes on ice. The supernatants were transferred to 1.5 ml reaction tubes and stored at −80°C before LC-MS (liquid chromatography and mass spectrometry) analysis of LTB4 and HETEs as described in 2.6 at the Institute of Pharmacology, Goethe University, University Hospital, Germany.
The lipid mediators LTB4, hydroxyeicosatetraenoic acids, 5(S)-HETE, 12(S)-HETE, 15(S)-HETE and 20-HETE were analyzed using liquid chromatography tandem-mass spectroscopy (LC-MS/MS). The LC-MS/MS system consisted of a 5500 QTrap mass spectrometer (Sciex, Darmstadt, Germany), operating in negative ESI mode, an Agilent 1200 HPLC system (Agilent, Waldbronn, Germany) and an HTC Pal autosampler (Chromtech, Idstein, Germany).
Suppl. Figure 3: Inhibition of 5-LO derived 5-HETE production by NFA with (A) different carbon chain lengths and (B) different Michael acceptor positions using the r5LO-wt assay. r5LO-wt (3 µg) in PBS/EDTA/ATP buffer was preincubated with the compounds or the vehicle control DMSO (0.1%) for 15 min at 4°C, preheated at 37°C for 30 sec, and subsequently stimulated with 1 mM CaCl 2 and 20 µM AA for another 10 min at 37°C.
5-HETE activity was analyzed by LC-MS. Data are presented as the percent of the control mean ± SD, n = 3–6. AA , arachidonic acid; ATP, adenosine triphosphate; DMSO, dimethyl sulfoxide; EDTA, ethylenediaminetetraacetate; HETE, hydroxyeicosatetraenoic acid; NFA, nitro-fatty acids; PBS, phosphate-buffered saline . […]

[2] = test system: HCT-116 cells; test: WST-1 cell viability assay, HCT-116; assay type: cell-based, human; details: for IC50: Homo sapiens, HCT-116; for cytotoxic potency higher compared to 9NOA: HCT-116 and HT-29 cells
Description: Cell viability was analyzed with the WST-1 assay based on the cleavage of the stable tetrazolium salt WST-1 by the mitochondrial reductase system. Cells were seeded in the appropriate densities in a clear 96-well plate and settled overnight at 37°C in 5% CO2. The next day, the cells were treated with NFA or the substances of interest (≤0.1% dimethyl sulfoxide [DMSO]) and incubated for 24 or 48 h at 37°C in 5% CO2. Cell viability was analyzed by adding 10 µl WST-1 solution (Roche, Basel, Switzerland) and subsequently incubating the cells at 37°C for another 30–40 min. Absorbance was measured at 450 nm with a control wavelength at 620 nm using a plate reader.
Besides targeting the NF-κB pathway, the anti-tumorigenic effects of NFA can be observed by a reduction of colorectal cancer cell viability. […] Again, the cytotoxic effects of NFA were determined in HCT-116 and HT-29 colorectal cancer cells in the present study. […] HCT-116 cells were treated with increasing concentrations of NFA differing in chain length and Michael acceptor position for 24 h, and cell viability was determined using the WST-1 assay. Due to their prolonged cell division rate and their lack of sensitivity towards NFA ([Kühn et al., 2018]), HT-29 cells were treated for 48 h to gain improved NFA activity.

[3] = 3 µg r5LO-wt, 15 min on ice, 1 mM CaCl2 + 20 µM AA, n.i. = no inhibition observed
[4] = WST-1 cell viability, 24 h, n.i. = no inhibition observed

Row | Structure (SMILES) | IC50 [1, 3] [µM] | IC50 [2, 4] [µM] | r5LO-wt 5-HETE IC50 [1, 3] | effect on product formation by recombinant 5-LO ([1]; at concentrations of >10 µM) | HCT-116 (24 h) IC50 [2, 4] | cytotoxic potency higher compared to 9NOA [2] [fold]
1 | CCCCCCCC=C(CCCCCCCCC(=O)O)[N+](=O)[O-] [18.10.10, 10-nitro-octadec-10-enoic acid] | 1.6 ± 1.3 | 13.6 ± 1.1 |  |  |  | 
2 | CCCCCCCCCCCCCC=C(CCC(=O)O)[N+](=O)[O-] [18.4.4, 4-nitro-octadec-4-enoic acid] | 0.4 ± 1.2 | 18.6 ± 1.1 |  |  |  | 
3 | CCCCCCCC/C=C\CCCCCCCC(=O)O [OA, oleic acid, reference compound] |  |  | n.i. | slight inhibitory effect | failed to induce cytotoxic effects and n.i. | 
4 | CCCCCCCCCCC=C(CCCCCC(=O)O)[N+](=O)[O-] [18.7.7, 7-nitro-octadec-7-enoic acid] | 0.6 ± 1.3 | 2.7 ± 1.1 |  |  |  | > 2
5 | CCCCCCC=C(CCCCCCCC(=O)O)[N+](=O)[O-] [16.9.9, 9-nitro-hexadec-9-enoic acid] | 3.3 ± 1.2 | 10.5 ± 1.1 |  |  |  | 
6 | CCCCCCCCCCCC(=CCCCCC(=O)O)[N+](=O)[O-] [18.6.7, 7-nitro-octadec-6-enoic acid] | 1.1 ± 1.2 | 8.1 ± 1.1 |  |  |  | 
7 | CCCCCCCCC=C(CCCCCCCC(=O)O)[N+](=O)[O-] [18.9.9, 9-nitro-octadec-9-enoic acid] | 1.1 ± 1.2 | 6.4 ± 1.2 |  |  |  | 
8 | CCCCCCC=C(CCCCCCCCCC(=O)O)[N+](=O)[O-] [18.11.11, 11-nitro-octadec-11-enoic acid] | 0.8 ± 1.2 | 16 ± 1.1 |  |  |  | 
9 | CCCCC=C(CCCCCCCC(=O)O)[N+](=O)[O-] [14.9.9, 9-nitro-tetradec-9-enoic acid] | 17.9 ± 1.6 | 16.8 ± 1.1 |  |  |  | 
10 | CCCCCCCCCCCCC=C(CCCC(=O)O)[N+](=O)[O-] [18.5.5, 5-nitro-octadec-5-enoic acid] | 0.4 ± 1.1 | 11.6 ± 1.1 |  |  |  | 
11 | CCC=C(CCCCCCCC(=O)O)[N+](=O)[O-] [12.9.9, 9-nitro-dodec-9-enoic acid] | 75.5 ± 8.1 | 23.1 ± 1.1 |  |  |  | 
12 | CCCCCCCCC(=CCCCCCCCC(=O)O)[N+](=O)[O-] [18.9.10, 10-nitro-octadec-9-enoic acid] | 1.6 ± 1.3 | 13.5 ± 1.1 |  |  |  | 
13 | CCCCCCCCCCCC=C(CCCCC(=O)O)[N+](=O)[O-] [18.6.6, 6-nitro-octadec-6-enoic acid] | 1 ± 1.2 | 7.6 ± 1.1 |  |  |  | 
14 | CCCCCCCCCC(=CCCCCCCC(=O)O)[N+](=O)[O-] [18.8.9, 9-nitro-octadec-8-enoic acid] | 1.9 ± 1.2 | 4.6 ± 1.1 |  |  |  | 
15 | CCCCCCCCCCC=C(CCCCCCCC(=O)O)[N+](=O)[O-] [20.9.9, 9-nitro-eicos-9-enoic acid] | 0.9 ± 1.3 | 5.4 ± 1.1 |  |  |  | 
16 | CCCCCCCCCC=C(CCCCCCC(=O)O)[N+](=O)[O-] [18.8.8, 8-nitro-octadec-8-enoic acid] | 2.2 ± 1.2 | 2.1 ± 1.1 |  |  |  | > 2
